Reference: BigSolDB 2.1

solubility (mole fraction) (in n-hexane, 293.2 K) | solubility (mole fraction) (in n-hexane, 298.2 K) | solubility (mole fraction) (in n-hexane, 303.2 K) | solubility (mole fraction) (in n-hexane, 310.2 K) | solubility (mole fraction) (in n-hexane, 315.2 K) | solubility (mole fraction) (in n-octanol, 293.2 K) | solubility (mole fraction) (in n-octanol, 298.2 K) | solubility (mole fraction) (in n-octanol, 303.2 K) | solubility (mole fraction) (in n-octanol, 310.2 K) | solubility (mole fraction) (in n-octanol, 315.2 K) | solubility (mole fraction) (in n-octanol, 288.2 K) | solubility (mole fraction) (in n-octanol, 290.7 K) | solubility (mole fraction) (in n-octanol, 295.7 K) | Compound
3.2e-06 | 4.8e-06 | 6.2e-06 | 9.2e-06 | 1.28e-05 | 0.0121 | 0.0134 | 0.0166 | 0.021 | 0.0251 |  |  |  | Cc1ccc(Nc2nc(CC(C)O)ns2)cc1Cl (stereo not given)
9.2e-06 | 1.51e-05 | 2.02e-05 | 3.51e-05 | 4.8e-05 | 0.0466 | 0.0627 | 0.0694 | 0.101 | 0.121 |  |  |  | COc1ccc(Nc2nc(CC(C)O)ns2)cc1 (stereo not given)
5.5e-06 | 9e-06 | 1.32e-05 | 2.4e-05 | 3.62e-05 | 0.0546 | 0.0633 | 0.0729 | 0.0885 | 0.101 |  |  |  | CC(O)Cc1nsc(Nc2cccc(Cl)c2)n1 (stereo not given)
2.95e-05 | 3.79e-05 | 4.73e-05 | 5.55e-05 | 6.64e-05 | 0.0488 | 0.054 |  |  |  | 0.0441 | 0.0465 | 0.0515 | Cc1ccc(Cl)cc1Nc1nc(CC(C)O)ns1 (stereo not given)
3.5e-06 | 5.2e-06 | 6.9e-06 | 1.13e-05 | 1.73e-05 | 0.0187 | 0.0218 | 0.0245 | 0.029 | 0.035 |  |  |  | CC(O)Cc1nsc(Nc2ccc(Cl)cc2)n1 (stereo not given)
2.49e-05 | 3.4e-05 | 4.59e-05 | 5.6e-05 | 7.05e-05 | 0.0266 | 0.0355 | 0.038 | 0.0501 | 0.0558 |  |  |  | Cc1cccc(Nc2nc(CC(C)O)ns2)c1 (stereo not given)
